Source: patent US12503438B2, “Compounds for the treatment of kinase-dependent disorders” (Exelixis, Inc., priority 2019, dated 2025)

What was measured:
Human Axl = target: T1, Human Axl (Homo sapiens, UniProt P30530, Q764R); test: Human AXL kinase assay (33P-phosphoryl transfer radiometric, KinaseProfiler); details: biochemical activity; 10 μM ATP
T1 construct: Human Axl (residues H473-A894 with Q764R, 161 nM); purchased Eurofins Pharma Discovery Services UK Limited (KinaseProfiler service)
T1 sequence (P30530 473-894 Q764R): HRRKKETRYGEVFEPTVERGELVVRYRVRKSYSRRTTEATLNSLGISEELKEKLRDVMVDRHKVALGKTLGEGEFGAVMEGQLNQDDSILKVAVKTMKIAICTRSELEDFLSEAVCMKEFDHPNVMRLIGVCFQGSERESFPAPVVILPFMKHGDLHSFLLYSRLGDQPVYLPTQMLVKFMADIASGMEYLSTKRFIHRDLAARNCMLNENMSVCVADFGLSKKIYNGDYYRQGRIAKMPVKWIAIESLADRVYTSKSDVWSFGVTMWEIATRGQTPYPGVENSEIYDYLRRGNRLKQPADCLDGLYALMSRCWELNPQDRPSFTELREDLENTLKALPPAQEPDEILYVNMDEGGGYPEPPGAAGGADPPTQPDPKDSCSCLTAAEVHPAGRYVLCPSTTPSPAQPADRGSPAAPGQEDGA
Method: Kinase activity and compound inhibition were investigated using the ^33P-Phosphoryl transfer radiometric kinase assay, performed using the KinaseProfiler™ service of Eurofins Pharma Discovery Services UK Limited. Dose-response experiments were performed using nine compound concentrations in a 96-well microtiter plate. For each assay, all compounds were prepared to a 50× final assay concentration (50 μM) in 100% DMSO, then diluted in a half-log series, with the final top concentration at 1 μM. This working stock of the compound was added to the assay well as the first component in the reaction, followed by the remaining components as detailed in the following assay protocols below. The positive control wells (100% kinase activity) contain all components of the reaction including 2% DMSO (control for solvent effects), except the compound of interest. Blank wells contain all components of the reaction, with the reference inhibitor, staurosporine. This reference compound was used to abolish kinase activity and generated the 0% kinase activity base-line. IC50 values were calculated by nonlinear regression analysis using the sigmoidal dose-response (variable slope) curve fit on XLFit version 5.3 (ID Business Solutions).
Human Axl (residues H473-A894 with Q764R, 161 nM) was incubated with 8 mM MOPS pH 7.0, 0.2 mM EDTA, 250 μM KKSRGDYMTMQIG, 10 mM magnesium acetate, and 10 μM [y-^33P-ATP]. The reaction was initiated by the addition of the Mg/ATP mix. After incubation for 40 minutes at room temperature, the reaction was stopped by the addition of phosphoric acid to a concentration of 0.5%. A reaction aliquot of 10 μL was then spotted onto a P30 filtermat and washed four times for 4 minutes in 0.425% phosphoric acid and once in methanol prior to drying and scintillation counting. Incorporated ^33P was measured using the Wallac Microbeta scintillation counter (Perkin Elmer).

Mer = target: T2, Mer (Homo sapiens, UniProt Q12866); test: Mer autophosphorylation ELISA in transient transfected 293A cells; format: cell-based; details: cellular activity; MERTK-transfected 293A cells, phospho-Mer ELISA
T2 construct: host or cells: 293A cells (Thermo Fisher #R70507)
T2 sequence (Q12866 21-999): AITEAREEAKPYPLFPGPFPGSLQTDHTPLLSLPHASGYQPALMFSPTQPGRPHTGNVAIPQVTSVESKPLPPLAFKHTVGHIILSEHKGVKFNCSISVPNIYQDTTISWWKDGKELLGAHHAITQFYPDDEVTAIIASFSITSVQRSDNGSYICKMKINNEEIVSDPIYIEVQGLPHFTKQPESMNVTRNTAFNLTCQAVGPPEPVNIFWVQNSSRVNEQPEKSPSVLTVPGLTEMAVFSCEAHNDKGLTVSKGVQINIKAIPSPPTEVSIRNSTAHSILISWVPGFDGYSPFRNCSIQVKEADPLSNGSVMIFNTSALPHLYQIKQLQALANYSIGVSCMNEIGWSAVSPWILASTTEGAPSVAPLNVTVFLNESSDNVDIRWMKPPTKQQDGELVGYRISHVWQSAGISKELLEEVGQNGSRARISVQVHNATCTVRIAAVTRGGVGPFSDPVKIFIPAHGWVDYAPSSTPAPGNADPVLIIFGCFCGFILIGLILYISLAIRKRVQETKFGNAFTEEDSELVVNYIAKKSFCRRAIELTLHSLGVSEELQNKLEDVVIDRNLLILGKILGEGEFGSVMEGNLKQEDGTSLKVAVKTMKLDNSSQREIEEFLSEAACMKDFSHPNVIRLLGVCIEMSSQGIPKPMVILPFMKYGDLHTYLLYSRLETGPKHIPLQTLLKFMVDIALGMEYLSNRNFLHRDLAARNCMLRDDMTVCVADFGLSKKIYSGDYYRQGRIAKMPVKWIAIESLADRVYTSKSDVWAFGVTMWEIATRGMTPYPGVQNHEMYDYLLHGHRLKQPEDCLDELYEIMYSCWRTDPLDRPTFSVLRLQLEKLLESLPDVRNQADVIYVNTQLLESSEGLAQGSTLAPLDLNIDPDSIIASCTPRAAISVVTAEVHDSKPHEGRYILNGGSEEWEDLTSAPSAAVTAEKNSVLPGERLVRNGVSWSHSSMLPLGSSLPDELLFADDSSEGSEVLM
In short: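 293A cells transiently transfected with human MERTK DNA, then treated 1 h with 8-point compound dilutions in serum-free medium (0.3% DMSO). Phospho-Mer in lysates quantified by sandwich ELISA against phospho-Mer standard; normalised to DMSO (100%) and reference inhibitor (0%), IC50 from 4-parameter logistic fit.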

| SMILES | IC50 (Human Axl) [nM] | IC50 (Mer) [nM] |
| --- | --- | --- |
| O=C(Nc1ccc(F)cc1)C1(C(=O)Nc2ccc(Oc3ccnc4cc(-c5ccncc5)ccc34)cc2)CC1 [Compound 26, 1-N′-(4-Fluorophenyl)-1-N-[4-(7-pyridin-4-ylquinolin-4-yl)oxyphenyl]cyclopropane-1,1-dicarboxamide] | 10 to 100 | 10 to 100 |
| Cn1nccc1-c1ccc2c(Oc3ccc(NC(=O)C4(C(=O)Nc5ccc(F)cc5)CC4)cc3)ccnc2c1 [Compound 54, 1-N′-(4-Fluorophenyl)-1-N-[4-[7-(2-methylpyrazol-3-yl)quinolin-4-yl]oxyphenyl]cyclopropane-1,1-dicarboxamide] | 10 to 100 | 10 to 100 |
| O=C(Nc1ccc(F)cc1)C1(C(=O)Nc2ccc(Oc3ccnc4cc(-c5cnn(C6CCNCC6)c5)ccc34)cc2)CC1 [Compound 60, 1-N′-(4-Fluorophenyl)-1-N-[4-[7-(1-piperidin-4-ylpyrazol-4-yl)quinolin-4-yl]oxyphenyl]cyclopropane-1,1-dicarboxamide] | ≤ 10 | 10 to 100 |
| CN1CCC(n2cc(-c3ccc4c(Oc5ccc(NC(=O)C6(C(=O)Nc7ccc(F)cc7)CC6)cc5)ccnc4c3)cn2)CC1 [Compound 61, 1-N′-(4-Fluorophenyl)-1-N-[4-[7-[1-(1-methylpiperidin-4-yl)pyrazol-4-yl]quinolin-4-yl]oxyphenyl]cyclopropane-1,1-dicarboxamide] | ≤ 10 | ≤ 10 |
| CC(=O)N1CCC(n2cc(-c3ccc4c(Oc5ccc(NC(=O)C6(C(=O)Nc7ccc(F)cc7)CC6)cc5)ccnc4c3)cn2)CC1 [Compound 62, 1-N-[4-[7-[1-(1-Acetylpiperidin-4-yl)pyrazol-4-yl]quinolin-4-yl]oxyphenyl]-1-N′-(4-fluorophenyl)cyclopropane-1,1-dicarboxamide] | ≤ 10 | ≤ 10 |
| Cn1cnc(-c2ccc3c(Oc4ccc(NC(=O)C5(C(=O)Nc6ccc(F)cc6)CC5)cc4)ccnc3c2)c1 [Compound 69, 1-N′-(4-Fluorophenyl)-1-N-[4-[7-(1-methylimidazol-4-yl)quinolin-4-yl]oxyphenyl]cyclopropane-1,1-dicarboxamide] | ≤ 10 | 10 to 100 |

Now from value to compound:

| IC50 (Human Axl) [nM] | IC50 (Mer) [nM] | SMILES |
| --- | --- | --- |
| ≤ 10 | 10 to 100 | O=C(Nc1ccc(F)cc1)C1(C(=O)Nc2ccc(Oc3ccnc4cc(-c5cncnc5)ccc34)cc2)CC1 [Compound 27, 1-N′-(4-Fluorophenyl)-1-N-[4-(7-pyrimidin-5-ylquinolin-4-yl)oxyphenyl]cyclopropane-1,1-dicarboxamide] |
| 10 to 100 | 10 to 100 | O=C(Nc1ccc(F)cc1)C1(C(=O)Nc2ccc(Oc3ccnc4cc(-c5ccnnc5)ccc34)cc2)CC1 [Compound 28, 1-N′-(4-Fluorophenyl)-1-N-[4-(7-pyridazin-4-ylquinolin-4-yl)oxyphenyl]cyclopropane-1,1-dicarboxamide] |
| ≤ 10 | 10 to 100 | O=C(Nc1ccc(F)cc1)C1(C(=O)Nc2ccc(Oc3ccnc4cc(-c5cnoc5)ccc34)cc2)CC1 [Compound 57, 1-N′-(4-Fluorophenyl)-1-N-[4-[7-(1,2-oxazol-4-yl)quinolin-4-yl]oxyphenyl]cyclopropane-1,1-dicarboxamide] |
| 10 to 100 | 10 to 100 | O=C(Nc1ccc(F)cc1)C1(C(=O)Nc2ccc(Oc3ccnc4cc(-c5ncco5)ccc34)cc2)CC1 [Compound 66, 1-N′-(4-Fluorophenyl)-1-N-[4-[7-(1,3-oxazol-2-yl)quinolin-4-yl]oxyphenyl]cyclopropane-1,1-dicarboxamide] |
| ≤ 10 | ≤ 10 | O=C(Nc1ccc(F)cc1)C1(C(=O)Nc2ccc(Oc3ccnc4cc(-c5cn[nH]c5)ccc34)cc2)CC1 [Compound 67, 1-N′-(4-Fluorophenyl)-1-N-[4-[7-(1H-pyrazol-4-yl)quinolin-4-yl]oxyphenyl]cyclopropane-1,1-dicarboxamide] |
| 10 to 100 | 10 to 100 | O=C(Nc1ccc(F)cc1)C1(C(=O)Nc2ccc(Oc3ccnc4cc(-c5ccn[nH]5)ccc34)cc2)CC1 [Compound 68, 1-N′-(4-Fluorophenyl)-1-N-[4-[7-(1H-pyrazol-5-yl)quinolin-4-yl]oxyphenyl]cyclopropane-1,1-dicarboxamide] |
